Reference: patent US20160015770A1, “COMPOSITIONS FOR TREATMENT OF RETINAL DETACHMENT” (THE REGENTS OF THE UNIVERSITY OF MICHIGAN, priority 2013, published 2016)

Molecular target: T1, calpain 1 (Mus musculus, UniProt O35350)
T1 construct: endogenous in cells; host or cells: 661W mouse photoreceptor cell line
T1 sequence (O35350 1-713): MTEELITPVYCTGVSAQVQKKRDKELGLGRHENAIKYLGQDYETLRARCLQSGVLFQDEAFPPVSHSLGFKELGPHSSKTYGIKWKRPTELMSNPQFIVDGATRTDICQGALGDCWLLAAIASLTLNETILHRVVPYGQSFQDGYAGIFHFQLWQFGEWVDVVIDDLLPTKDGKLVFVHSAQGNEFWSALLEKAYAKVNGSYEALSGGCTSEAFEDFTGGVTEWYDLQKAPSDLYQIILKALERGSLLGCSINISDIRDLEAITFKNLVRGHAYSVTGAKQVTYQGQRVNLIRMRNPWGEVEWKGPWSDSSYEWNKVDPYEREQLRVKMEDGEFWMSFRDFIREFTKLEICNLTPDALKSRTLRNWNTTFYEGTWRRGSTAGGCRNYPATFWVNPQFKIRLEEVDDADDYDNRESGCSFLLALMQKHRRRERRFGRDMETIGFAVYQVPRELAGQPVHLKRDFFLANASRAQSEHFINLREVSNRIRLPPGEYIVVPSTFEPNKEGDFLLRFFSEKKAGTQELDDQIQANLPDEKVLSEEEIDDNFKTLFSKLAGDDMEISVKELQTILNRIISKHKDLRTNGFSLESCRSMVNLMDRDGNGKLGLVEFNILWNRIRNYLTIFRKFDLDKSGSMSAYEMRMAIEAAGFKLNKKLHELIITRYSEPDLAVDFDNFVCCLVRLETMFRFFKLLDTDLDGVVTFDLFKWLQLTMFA
T1 sequence (O88456 1-268 partner): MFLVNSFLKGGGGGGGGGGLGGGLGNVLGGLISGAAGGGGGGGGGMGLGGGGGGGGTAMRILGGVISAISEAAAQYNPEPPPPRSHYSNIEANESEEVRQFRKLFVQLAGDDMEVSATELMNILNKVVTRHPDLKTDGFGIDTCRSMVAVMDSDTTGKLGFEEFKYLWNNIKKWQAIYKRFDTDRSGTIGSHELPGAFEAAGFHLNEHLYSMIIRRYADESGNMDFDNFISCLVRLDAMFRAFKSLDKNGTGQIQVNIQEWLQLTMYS
Assay: Western blot of calpain 1 specific cleaved alpha-spectrin in 661W cells treated with Fas activating antibody
Format: cell-based
Conditions: 24 hours
Procedure: The 661W photoreceptor cell line was generously provided by Dr. Muayyad Al-Ubaidi (Department of Cell Biology, University of Oklahoma Health Sciences Center, Oklahoma City, Okla.). The 661W cell line was maintained in Dulbecco's modified Eagle's medium containing 10% fetal bovine serum, 300 mg/L glutamine, 32 mg/L putrescine, 40 μL/L β-mercaptoethanol, and 40 μg/L of both hydrocortisone 21-hemisuccinate and progesterone. The media also contained penicillin (90 units/mL) and streptomycin (0.09 mg/mL). Cells were grown at 37° C. in a humidified atmosphere of 5% CO2 and 95% air.
Retinas from experimental eyes with detachment (detached portion of retina only) and control eyes without detachment were dissected from the RPE-choroid, homogenized, and lysed in buffer containing 10 mM HEPES (pH 7.6), 0.5% IgEPal, 42 mM KCl, 1 mM phenylmethylsulfonyl fluoride, 1 mM EDTA, 1 mM EGTA, 1 mM dithiothreitol, 5 mM MgCl2, and one tablet of protease inhibitors per 10 mL buffer (Complete Mini; Roche Diagnostics GmbH, Madison, Wis.). 661W cells were plated at 150,000 cells per well in six-well culture dishes in growth media. After 24 hours, the cells were washed one time with warmed PBS solution and then placed in growth media without fetal bovine serum. Depending on experimental conditions, 500 ng/mL Fas activating antibody (BD Biosciences, San Jose, Calif.) and various calpain inhibitors including MDG-28170 (Sigma, St. Louis, Mo.), MG-101 (Sigma, St. Louis, Mo.), calpeptin (Santa Cruz Biotechnology, Santa Cruz, Calif.) or equal volume of DMSO was added. Calpain inhibitors were added 1 hour prior to the addition of Fas activating antibody. The cells were incubated for various lengths of time and then lysed and homogenized in lysis buffer. The homogenates were incubated on ice and centrifuged at 22,000 g at 4° C. for 60 minutes. The protein concentration of the supernatant was then determined (DC Protein Assay kit; Bio-Rad Laboratories, Hercules, Calif.). The protein samples were separated on SDS-polyacrylamide gels (Tris-HCl Ready Gels; Bio-Rad Laboratories). After electrophoretic separation, the proteins were transferred onto polyvinylidene fluoride membranes (Immobilon-P; Millipore, Billerica, Mass.). Membranes were then immunoblotted with antibodies according to the manufacturer's instructions. The following antibodies were used: LC3b (Cell Signaling, Beverly, Mass.), Atg5 (Abgent, San Diego, Calif.), Atg12 (Cell Signaling, Beverly, Mass.), calpain 1 (Cell Signaling, Beverly, Mass.), alpha-spectrin (Santa Cruz Biotechnology, Santa Cruz, Calif.), actin (Sigma, St. Louis, Mo.), and GAPDH (Abcam, Cambridge, Mass.).
After determining calpain 1 levels, it was looked to correlate this with calpain activity. […]

- relative size of the effect on cleaved alpha-spectrin among the calpain inhibitors (Fas activating antibody, two concentrations): largest effect
- cleaved alpha-spectrin levels (inhibitor added 1 hour before Fas activating antibody, compared to Fas activation alone): decreased
Compound: CCCC[C@@H](C=O)NC(=O)[C@H](CC(C)C)NC(=O)OCc1ccccc1 [calpeptin]
